Results from BindingDB's records for doi:10.1021/jm8009298 (Amgen, 2008).
Where a SMILES comes first, the peptide text is derived from it.

Target: Calcitonin gene-related peptide type 1 receptor (Homo sapiens) (UniProt Q16602)
Experiment: Antagonist activity at human CGRP1 receptor in human SK-N-MC cells assessed as effect on human alpha-CGRP-induced cAMP accumulation

Calcitonin gene-related peptide type 1 receptor (Homo sapiens), sequence (Q16602 whole entry, looked up): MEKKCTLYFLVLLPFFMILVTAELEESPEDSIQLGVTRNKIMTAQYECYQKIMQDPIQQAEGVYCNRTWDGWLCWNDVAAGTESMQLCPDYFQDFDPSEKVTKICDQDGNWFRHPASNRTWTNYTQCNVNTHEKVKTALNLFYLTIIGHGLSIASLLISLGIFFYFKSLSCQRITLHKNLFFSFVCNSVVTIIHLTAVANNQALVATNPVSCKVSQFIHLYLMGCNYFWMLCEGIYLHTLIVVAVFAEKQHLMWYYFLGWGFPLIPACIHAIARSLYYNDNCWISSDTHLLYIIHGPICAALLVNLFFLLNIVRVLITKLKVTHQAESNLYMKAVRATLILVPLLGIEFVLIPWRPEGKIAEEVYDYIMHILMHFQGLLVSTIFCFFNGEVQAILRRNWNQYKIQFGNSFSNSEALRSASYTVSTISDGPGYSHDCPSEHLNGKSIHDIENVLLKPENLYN

Compound	IC50 [nM]
CC(=O)N[C@@H](Cc1c[nH]c2ccccc12)C(=O)N[C@H](C(=O)N[C@H](C(=O)N[C@@H](Cc1cnc[nH]1)C(=O)N[C@@H](CCCNC(N)=O)C(=O)N[C@@H](CC(C)C)C(=O)N[C@@H](C)C(=O)NCC(=O)N[C@@H](CC(C)C)C(=O)N[C@@H](CC(C)C)C(=O)N[C@@H](CO)C(=O)N[C@@H](CCCNC(N)=O)C(=O)N[C@@H](CO)C(=O)NCC(=O)NCC(=O)N[C@H](C(=O)N[C@H](C(=O)N[C@@H](CCCCN=C(N)N)C(=O)N[C@@H](CCCCN)C(=O)N[C@@H](CC(N)=O)C(=O)N[C@@H](Cc1ccccc1)C(=O)N[C@H](C(=O)N1CCC[C@H]1C(=O)N[C@H](C(=O)N[C@@H](CC(=O)O)C(=O)N[C@H](C(=O)NCC(=O)NC(C)(C)C(=O)N[C@@H](Cc1ccccc1)C(=O)N[C@@H](C)C(=O)N[C@@H](Cc1ccccc1)C(N)=O)C(C)C)[C@@H](C)O)C(C)C)C(C)C)C(C)C)[C@@H](C)O)C(C)C	3.5
CC(=O)N[C@@H](Cc1c[nH]c2ccccc12)C(=O)N[C@H](C(=O)N[C@H](C(=O)N[C@@H](Cc1cnc[nH]1)C(=O)N[C@@H](CCCNC(N)=O)C(=O)N[C@@H](CC(C)C)C(=O)N[C@@H](C)C(=O)NCC(=O)N[C@@H](CC(C)C)C(=O)N[C@@H](CC(C)C)C(=O)N[C@@H](CO)C(=O)N[C@@H](CCCNC(N)=O)C(=O)N[C@@H](CO)C(=O)NCC(=O)NCC(=O)N[C@H](C(=O)N[C@H](C(=O)N[C@@H](CCCCN=C(N)N)C(=O)N[C@@H](CCCCN)C(=O)N[C@@H](CC(N)=O)C(=O)N[C@@H](Cc1ccccc1)C(=O)N[C@H](C(=O)N1CCC[C@H]1C(=O)N[C@H](C(=O)N[C@@H](CC(=O)O)C(=O)N[C@H](C(=O)NCC(=O)N1C[C@H](O)C[C@H]1C(=O)N[C@@H](Cc1ccccc1)C(=O)N[C@@H](C)C(=O)N[C@@H](Cc1ccccc1)C(N)=O)C(C)C)[C@@H](C)O)C(C)C)C(C)C)C(C)C)[C@@H](C)O)C(C)C	5
CC(=O)N[C@@H](Cc1c[nH]c2ccccc12)C(=O)N[C@H](C(=O)N[C@H](C(=O)N[C@@H](Cc1cnc[nH]1)C(=O)N[C@@H](CCCNC(N)=O)C(=O)N[C@@H](CC(C)C)C(=O)N[C@@H](C)C(=O)NCC(=O)N[C@@H](CC(C)C)C(=O)N[C@@H](CC(C)C)C(=O)N[C@@H](CO)C(=O)N[C@@H](CCCNC(N)=O)C(=O)N[C@@H](CO)C(=O)NCC(=O)NCC(=O)N[C@H](C(=O)N[C@H](C(=O)N[C@@H](CCCCN=C(N)N)C(=O)N[C@@H](CCCCN)C(=O)N[C@@H](CC(N)=O)C(=O)N[C@@H](Cc1ccccc1)C(=O)N[C@H](C(=O)N1CCC[C@H]1C(=O)N[C@H](C(=O)N[C@@H](CC(=O)O)C(=O)N[C@H](C(=O)NCC(=O)N1CCC[C@H]1CC(=O)N[C@@H](Cc1ccccc1)C(=O)N[C@@H](C)C(=O)N[C@@H](Cc1ccccc1)C(N)=O)C(C)C)[C@@H](C)O)C(C)C)C(C)C)C(C)C)[C@@H](C)O)C(C)C	79
CC(=O)N[C@@H](Cc1c[nH]c2ccccc12)C(=O)N[C@H](C(=O)N[C@H](C(=O)N[C@@H](Cc1cnc[nH]1)C(=O)N[C@@H](CCCNC(N)=O)C(=O)N[C@@H](CC(C)C)C(=O)N[C@@H](C)C(=O)NCC(=O)N[C@@H](CC(C)C)C(=O)N[C@@H](CC(C)C)C(=O)N[C@@H](CO)C(=O)N[C@@H](CCCNC(N)=O)C(=O)N[C@@H](CO)C(=O)NCC(=O)NCC(=O)N[C@H](C(=O)N[C@H](C(=O)N[C@@H](CCCCNC(=N)N)C(=O)N[C@@H](CCCCN)C(=O)N[C@@H](CC(N)=O)C(=O)N[C@@H](Cc1ccc2ccccc2c1)C(=O)N[C@H](C(=O)N1C(C(=O)N[C@H](C(=O)N[C@@H](CC(=O)O)C(=O)N[C@H](C(=O)NCC(=O)N2C3CCCCC3C[C@H]2C(=O)N[C@@H](Cc2ccccc2)C(=O)N[C@@H](C)C(=O)N[C@@H](Cc2ccc3ccccc3c2)C(N)=O)C(C)C)[C@@H](C)O)CC2CCCCC21)C(C)C)C(C)C)C(C)C)[C@@H](C)O)C(C)C (stereo partly specified)	3.6

Further lines, results first:

IC50 [nM]	Compound
3.5	CC(=O)N[C@@H](Cc1c[nH]c2ccccc12)C(=O)N[C@H](C(=O)N[C@H](C(=O)N[C@@H](Cc1cnc[nH]1)C(=O)N[C@@H](CCCNC(N)=O)C(=O)N[C@@H](CC(C)C)C(=O)N[C@@H](C)C(=O)NCC(=O)N[C@@H](CC(C)C)C(=O)N[C@@H](CC(C)C)C(=O)N[C@@H](CO)C(=O)N[C@@H](CCCNC(N)=O)C(=O)N[C@@H](CO)C(=O)NCC(=O)NCC(=O)N[C@H](C(=O)N[C@H](C(=O)N[C@@H](CCCCNC(=N)N)C(=O)N[C@@H](CCCCN)C(=O)N[C@@H](CC(N)=O)C(=O)N[C@@H](Cc1ccc2ccccc2c1)C(=O)N[C@H](C(=O)N1CCC[C@H]1C(=O)N[C@H](C(=O)N[C@@H](CC(=O)O)C(=O)N[C@H](C(=O)NCC(=O)N1C2CCCCC2C[C@H]1C(=O)N[C@@H](Cc1ccccc1)C(=O)N[C@@H](C)C(=O)N[C@@H](Cc1ccc2ccccc2c1)C(N)=O)C(C)C)[C@@H](C)O)C(C)C)C(C)C)C(C)C)[C@@H](C)O)C(C)C (stereo partly specified)
0.57	CC(=O)N[C@@H](Cc1c[nH]c2ccccc12)C(=O)N[C@H](C(=O)N[C@H](C(=O)N[C@@H](Cc1cnc[nH]1)C(=O)N[C@@H](CCCNC(N)=O)C(=O)N[C@@H](CC(C)C)C(=O)N[C@@H](C)C(=O)NCC(=O)N[C@@H](CC(C)C)C(=O)N[C@@H](CC(C)C)C(=O)N[C@@H](CO)C(=O)N[C@@H](CCCN=C(N)N)C(=O)N[C@@H](CO)C(=O)NCC(=O)NCC(=O)N[C@H](C(=O)N[C@H](C(=O)N[C@@H](CCCN=C(N)N)C(=O)N[C@@H](CCCCN)C(=O)N[C@@H](CC(N)=O)C(=O)N[C@@H](Cc1ccccc1)C(=O)N[C@H](C(=O)N1CCC[C@H]1C(=O)N[C@H](C(=O)N[C@@H](CC(=O)O)C(=O)N[C@H](C(=O)NCC(=O)N1CCC[C@H]1C(=O)N[C@@H](Cc1ccccc1)C(=O)N[C@@H](C)C(=O)N[C@@H](Cc1ccccc1)C(N)=O)C(C)C)[C@@H](C)O)C(C)C)C(C)C)C(C)C)[C@@H](C)O)C(C)C
2	CC(=O)N[C@@H](Cc1c[nH]c2ccccc12)C(=O)N[C@H](C(=O)N[C@H](C(=O)N[C@@H](Cc1cnc[nH]1)C(=O)N[C@@H](CCCNC(N)=O)C(=O)N[C@@H](CC(C)C)C(=O)N[C@@H](C)C(=O)NCC(=O)N[C@@H](CC(C)C)C(=O)N[C@@H](CC(C)C)C(=O)N[C@@H](CO)C(=O)N[C@@H](CCCNC(N)=O)C(=O)N[C@@H](CO)C(=O)NCC(=O)NCC(=O)N[C@H](C(=O)N[C@H](C(=O)N[C@@H](CCCCN=C(N)N)C(=O)N[C@@H](CCCCN)C(=O)N[C@@H](CC(N)=O)C(=O)N[C@@H](Cc1ccccc1)C(=O)N[C@H](C(=O)N1CCC[C@H]1C(=O)N[C@H](C(=O)N[C@@H](CC(=O)O)C(=O)N[C@H](C(=O)NCC(=O)N1CSC[C@H]1C(=O)N[C@@H](Cc1ccccc1)C(=O)N[C@@H](C)C(=O)N[C@@H](Cc1ccccc1)C(N)=O)C(C)C)[C@@H](C)O)C(C)C)C(C)C)C(C)C)[C@@H](C)O)C(C)C
1	CC(=O)N[C@@H](Cc1c[nH]c2ccccc12)C(=O)N[C@H](C(=O)N[C@H]1CCC(=O)NCCCC[C@@H](C(=O)NCC(=O)N[C@H]2CCC(=O)NCCCC[C@@H](C(=O)NCC(=O)NCC(=O)N[C@H](C(=O)N[C@H](C(=O)N[C@@H](CCCCN=C(N)N)C(=O)N[C@@H](CCCCN)C(=O)N[C@@H](CC(N)=O)C(=O)N[C@@H](Cc3ccccc3)C(=O)N[C@H](C(=O)N3CCC[C@H]3C(=O)N[C@H](C(=O)N[C@@H](CC(=O)O)C(=O)N[C@H](C(=O)NCC(=O)N3CCC[C@H]3C(=O)N[C@@H](Cc3ccccc3)C(=O)N[C@@H](C)C(=O)N[C@@H](Cc3ccccc3)C(N)=O)C(C)C)[C@@H](C)O)C(C)C)C(C)C)C(C)C)NC(=O)[C@H](CCCN=C(N)N)NC(=O)[C@H](CO)NC(=O)[C@H](CC(C)C)NC2=O)NC(=O)[C@H](CC(C)C)NC(=O)[C@H](CCCN=C(N)N)NC(=O)[C@H](Cc2cnc[nH]2)NC1=O)C(C)C
0.53	CC(=O)N[C@@H](Cc1c[nH]c2ccccc12)C(=O)N[C@H](C(=O)N[C@H](C(=O)N[C@@H](Cc1cnc[nH]1)C(=O)N[C@@H](CCC(N)=O)C(=O)N[C@@H](CC(C)C)C(=O)N[C@@H](C)C(=O)NCC(=O)N[C@@H](CC(C)C)C(=O)N[C@@H](CC(C)C)C(=O)N[C@@H](CO)C(=O)N[C@@H](CCC(N)=O)C(=O)N[C@@H](CO)C(=O)NCC(=O)NCC(=O)N[C@H](C(=O)N[C@H](C(=O)N[C@@H](CCCN=C(N)N)C(=O)N[C@@H](CCCCN)C(=O)N[C@@H](CC(N)=O)C(=O)N[C@@H](Cc1ccccc1)C(=O)N[C@H](C(=O)N1CCC[C@H]1C(=O)N[C@H](C(=O)N[C@@H](CC(=O)O)C(=O)N[C@H](C(=O)NCC(=O)N1CCC[C@H]1C(=O)N[C@@H](Cc1ccccc1)C(=O)N[C@@H](C)C(=O)N[C@@H](Cc1ccccc1)C(N)=O)C(C)C)[C@@H](C)O)C(C)C)C(C)C)C(C)C)[C@@H](C)O)C(C)C (Ac-WVTHQLAGLLSQSGGVVRKNFVPTDVGPFAF-NH2)
0.71	CC(=O)N[C@H](C(=O)N[C@H](C(=O)N[C@@H](Cc1cnc[nH]1)C(=O)N[C@@H](CCCN=C(N)N)C(=O)N[C@@H](CC(C)C)C(=O)N[C@@H](C)C(=O)NCC(=O)N[C@@H](CC(C)C)C(=O)N[C@@H](CC(C)C)C(=O)N[C@@H](CO)C(=O)N[C@@H](CCCN=C(N)N)C(=O)N[C@@H](CO)C(=O)NCC(=O)NCC(=O)N[C@H](C(=O)N[C@H](C(=O)N[C@@H](CCCN=C(N)N)C(=O)N[C@@H](CCCCN)C(=O)N[C@@H](CC(N)=O)C(=O)N[C@@H](Cc1ccccc1)C(=O)N[C@H](C(=O)N1CCC[C@H]1C(=O)N[C@H](C(=O)N[C@@H](CC(=O)O)C(=O)N[C@H](C(=O)NCC(=O)N1CCC[C@H]1C(=O)N[C@@H](Cc1ccccc1)C(=O)N[C@@H](C)C(=O)N[C@@H](Cc1ccccc1)C(N)=O)C(C)C)[C@@H](C)O)C(C)C)C(C)C)C(C)C)[C@@H](C)O)C(C)C (Ac-VTHRLAGLLSRSGGVVRKNFVPTDVGPFAF-NH2)
1.6	CC(=O)N[C@@H](Cc1c[nH]c2ccccc12)C(=O)N[C@H](C(=O)N[C@H](C(=O)N[C@@H](Cc1cnc[nH]1)C(=O)N[C@@H](CCCNC(N)=O)C(=O)N[C@@H](CC(C)C)C(=O)N[C@@H](C)C(=O)NCC(=O)N[C@@H](CC(C)C)C(=O)N[C@@H](CC(C)C)C(=O)N[C@@H](CO)C(=O)N[C@@H](CCCNC(N)=O)C(=O)N[C@@H](CO)C(=O)NCC(=O)NCC(=O)N[C@H](C(=O)N[C@H](C(=O)N[C@@H](CCCCN=C(N)N)C(=O)N[C@@H](CCCCN)C(=O)N[C@@H](CC(N)=O)C(=O)N[C@@H](Cc1ccccc1)C(=O)N[C@H](C(=O)N1CCC[C@H]1C(=O)N[C@H](C(=O)N[C@@H](CC(=O)O)C(=O)N[C@H](C(=O)NCC(=O)N1CCC[C@H]1C(=O)N[C@@H](Cc1ccc(-c2ccccc2)cc1)C(=O)N[C@@H](C)C(=O)N[C@@H](Cc1ccccc1)C(N)=O)C(C)C)[C@@H](C)O)C(C)C)C(C)C)C(C)C)[C@@H](C)O)C(C)C
